One may read the pKi as the Ki on a negative log10 scale, so that one unit is a factor of ten. A higher pKi goes with a small Ki.

The structures appear in SMILES notation. pKi: −log10 of the molar value.

Assay [1] deals with C3H 10T1/2. As to the kind of experiment: Inhibition of arachidonic acid metabolite release in C3H10T1/2 cells. In kind it is functional, Mus musculus.
Assay [2] has as its target Epidermal growth factor receptor (Mus musculus) (UniProt Q01279). As to the kind of experiment: Inhibition of epidermal growth factor binding in C3H10T1/2 cells. In kind it is functional, cell-based. Particulars: C3H 10T1/2.
A short description of assay [3]: Displacement of [3H]PDBu from Protein kinase C in vitro. The arrangement: species or system Mus musculus. Background: Displacement assays read how much labelled ligand stays bound in the presence of the test substance.

Sequence of Epidermal growth factor receptor (Mus musculus) (Q01279 whole entry): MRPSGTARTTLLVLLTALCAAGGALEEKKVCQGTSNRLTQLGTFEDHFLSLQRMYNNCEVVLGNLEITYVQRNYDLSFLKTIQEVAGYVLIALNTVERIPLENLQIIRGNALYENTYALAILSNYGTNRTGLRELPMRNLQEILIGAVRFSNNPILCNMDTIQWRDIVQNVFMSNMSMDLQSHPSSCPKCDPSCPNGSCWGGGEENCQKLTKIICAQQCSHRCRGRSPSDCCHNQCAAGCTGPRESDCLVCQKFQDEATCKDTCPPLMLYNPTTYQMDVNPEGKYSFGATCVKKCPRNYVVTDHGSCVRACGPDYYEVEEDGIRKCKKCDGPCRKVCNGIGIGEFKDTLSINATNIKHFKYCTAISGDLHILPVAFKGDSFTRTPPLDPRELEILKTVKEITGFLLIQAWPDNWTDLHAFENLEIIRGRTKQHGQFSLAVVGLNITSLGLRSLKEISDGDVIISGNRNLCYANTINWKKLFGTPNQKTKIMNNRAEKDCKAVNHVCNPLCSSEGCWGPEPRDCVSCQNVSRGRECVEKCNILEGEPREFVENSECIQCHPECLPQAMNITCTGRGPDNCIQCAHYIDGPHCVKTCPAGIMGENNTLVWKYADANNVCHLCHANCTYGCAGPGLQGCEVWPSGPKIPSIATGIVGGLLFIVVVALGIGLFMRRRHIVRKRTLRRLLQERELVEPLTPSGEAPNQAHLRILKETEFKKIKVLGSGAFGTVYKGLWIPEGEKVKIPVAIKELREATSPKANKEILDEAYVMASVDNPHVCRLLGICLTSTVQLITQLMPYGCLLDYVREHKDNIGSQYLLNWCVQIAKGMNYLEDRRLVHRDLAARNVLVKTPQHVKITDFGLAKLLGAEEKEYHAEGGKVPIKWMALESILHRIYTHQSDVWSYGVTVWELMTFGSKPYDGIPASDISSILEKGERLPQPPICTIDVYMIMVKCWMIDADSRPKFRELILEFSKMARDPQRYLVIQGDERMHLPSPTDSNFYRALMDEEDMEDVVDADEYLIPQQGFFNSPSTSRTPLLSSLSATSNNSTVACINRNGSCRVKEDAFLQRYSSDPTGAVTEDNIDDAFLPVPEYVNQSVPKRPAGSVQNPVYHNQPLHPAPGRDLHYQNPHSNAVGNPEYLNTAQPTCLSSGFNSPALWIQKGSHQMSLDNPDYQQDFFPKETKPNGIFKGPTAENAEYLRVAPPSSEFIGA

`CC(=O)O[C@@]12C[C@@H](C)[C@@]3(O)[C@@H](C=C(CO)C[C@]4(O)C(=O)C(C)=C[C@@H]34)[C@@H]1C2(C)C` [PROSTRATIN]: the Effective concentration in assay [1] was 1100 nM; in assay [2] it was 220 nM. The molecule further had a pKi in assay [3] of 7.90.

Values taken from ChEMBL document CHEMBL1126055, “A nonpromoting phorbol from the samoan medicinal plant Homalanthus nutans inhibits cell killing by HIV-1” (J Med Chem, 1992).
